Assays:
Assay type in all cases: cell-based, mouse
[1] = system: α7 integrin (LacZ reporter in α7βgal+/− myoblasts); assay: Myoblast α7+/LacZ integrin FDG assay (Burkin assay in myoblasts, 96-well); settings: α7+/LacZ myoblasts, 96-well
[2] = system: α7 integrin (LacZ reporter in α7+/LacZ myotubes); assay: Myotube α7 integrin FDG assay (Burkin assay in myotubes, 96-well); settings: myotubes
[3] = system: β-galactosidase in CMV-LacZ C2C12 myotubes; assay: CMV-LacZ secondary screen in C2C12 myotubes (β-Gal stabilizing assay); settings: for CMV-LACZ in Myotubes, signal relative to DMSO: C2C12 CMV-LacZ myotubes, fold relative to DMSO; for CMV-LACZ in Myotubes (β-galactosidase activity relative to DMSO): CMV-LacZ C2C12 myotubes, 96-well format
Outline: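 A secondary screen identifies compounds that stabilize β-gal independently of the native promoter, using CMV-LacZ C2C12 cells. Curves span 0.5–40 μM at six levels, in duplicate.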

Structure (SMILES)	Burkin Assay in Myoblasts, value relative to DMSO ([1]; 0.5 uM)	Burkin Assay in Myoblasts, value relative to DMSO ([1]; 1 uM)	Burkin Assay in Myoblasts, value relative to DMSO ([1]; 5 uM)	Burkin Assay in Myoblasts, value relative to DMSO ([1]; 10 uM)	Burkin Assay in Myoblasts, value relative to DMSO ([1]; 20 uM)	Burkin Assay in Myoblasts, value relative to DMSO ([1]; 40 uM)	Burkin Assay in Myotubes (signal relative to DMSO) ([2]; 0.5 uM)	Burkin Assay in Myotubes (signal relative to DMSO) ([2]; 1 uM)	Burkin Assay in Myotubes (signal relative to DMSO) ([2]; 5 uM)	Burkin Assay in Myotubes (signal relative to DMSO) ([2]; 10 uM)	Burkin Assay in Myotubes (signal relative to DMSO) ([2]; 20 uM)	Burkin Assay in Myotubes (signal relative to DMSO) ([2]; 40 uM)	CMV-LACZ in Myotubes, signal relative to DMSO ([3]; 5 uM)	CMV-LACZ in Myotubes, signal relative to DMSO ([3]; 10 uM)	CMV-LACZ in Myotubes, signal relative to DMSO ([3]; 20 uM)	CMV-LACZ in Myotubes, signal relative to DMSO ([3]; 40 uM)	CMV-LACZ in Myotubes (β-galactosidase activity relative to DMSO) ([3]; 5 uM)	CMV-LACZ in Myotubes (β-galactosidase activity relative to DMSO) ([3]; 10 uM)	CMV-LACZ in Myotubes (β-galactosidase activity relative to DMSO) ([3]; 20 uM)	CMV-LACZ in Myotubes (β-galactosidase activity relative to DMSO) ([3]; 40 uM)	other results
COC(=O)C(=O)C/C(=N/Nc1ncnc2ccccc12)c1ccc(Cl)cc1 [MLS001174719-01]	1.053	1.048	1.013	0.848	0.7524	0.5265	1.135	1.001	1.128	1.034	0.9771	0.7374	0.8551	0.832	0.9254	1.108	–	–	–	–	–
COc1ccccc1CNS(=O)(=O)c1ccc(Cl)s1 [MLS001175449-01]	1.0562	1.036	1.045	0.9949	1.066	0.7564	1.1188	1.016	1.156	0.9366	1.151	0.8041	0.8534	0.9034	0.889	0.8671	–	–	–	–	–
CS(=O)(=O)Cc1cccc(C(=O)NN(c2ccccc2)c2ccccc2)c1 [MLS001175473-01]	0.5331	0.3721	0.8732	0.8715	0.899	0.8698	0.9556	0.9177	0.8872	0.9977	1.041	0.7971	–	–	–	–	0.8962	0.8587	0.9592	1.066	–
C/C(=N\Nc1nncc2ccccc12)c1cccc(OC(F)F)c1 [MLS001175556-01]	0.92	0.8625	0.9202	0.8856	0.8956	0.8018	0.949	1.028	1.1	0.9013	0.901	0.7514	–	–	–	–	1.113	1.053	0.9158	1.103	–
Cc1ccc(NC(=O)NCc2nc3ccccc3n2C)cc1 [MLS001175592-01]	0.8989	0.8859	0.9323	0.9006	0.9731	0.9405	0.9685	0.986	0.6911	1.034	0.6445	1.047	0.947	1.031	0.9649	1.018	–	–	–	–	–
CN(C)S(=O)(=O)c1cccc(C(=O)Nc2ccc3c(c2)CCC3)c1 [MLS001176611-01]	1.049	0.994	1.097	1.072	0.8398	0.9134	0.9506	0.6671	1.066	0.9301	0.9665	0.9846	–	–	–	–	0.9287	1.235	1.034	0.785	–
CC(=O)Nc1ccc(NC(=O)[C@@H](NC(=O)c2cccc(C)c2)C(C)C)cc1 [MLS001176897-01]	0.9342	0.9456	0.9058	0.9978	0.9458	0.9475	0.9577	1.073	1.022	1.194	1.145	1.163	–	–	–	–	1.009	0.797	1.121	1.046	–
COc1ccccc1OCC(=O)Nc1cc2c(cc1C(=O)O)OCCCO2 [MLS001177045-01]	0.8463	1.032	1.0025	1.0259	1.031	0.9569	1.047	0.8145	1.024	1.0851	1.11	0.9678	–	–	–	–	0.9238	1.11	1.058	1.118	–
CCCCNC(=O)CSc1nnc(Cc2ccc(Cl)c(Cl)c2)c(=O)[nH]1 [MLS001177259-01]	–	–	–	–	–	–	–	–	–	–	–	–	0.9462	0.7316	0.8543	1.1	–	–	–	–	Burkin Assay in Myoblasts, signal relative to DMSO ([1]; 0.5 uM): 0.9606; Burkin Assay in Myoblasts, signal relative to DMSO ([1]; 1 uM): 0.9896; Burkin Assay in Myoblasts, signal relative to DMSO ([1]; 5 uM): 0.9735; Burkin Assay in Myoblasts, signal relative to DMSO ([1]; 10 uM): 0.9165; Burkin Assay in Myoblasts, signal relative to DMSO ([1]; 20 uM): 0.7694; Burkin Assay in Myoblasts, signal relative to DMSO ([1]; 40 uM): 0.7773; Burkin Assay in Myotubes, α7 integrin LacZ reporter signal relative to DMSO ([2]; 0.5 uM): 0.948; Burkin Assay in Myotubes, α7 integrin LacZ reporter signal relative to DMSO ([2]; 1 uM): 1.053; Burkin Assay in Myotubes, α7 integrin LacZ reporter signal relative to DMSO ([2]; 5 uM): 0.9988; Burkin Assay in Myotubes, α7 integrin LacZ reporter signal relative to DMSO ([2]; 10 uM): 1.044; Burkin Assay in Myotubes, α7 integrin LacZ reporter signal relative to DMSO ([2]; 20 uM): 0.8187; Burkin Assay in Myotubes, α7 integrin LacZ reporter signal relative to DMSO ([2]; 40 uM): 0.9237
CS(=O)(=O)c1ccc(Cl)c(NC(=O)CSc2nncn2-c2ccccc2)c1 [MLS001177364-01]	–	–	–	–	–	–	–	–	–	–	–	–	1.262	0.9578	1.053	0.9743	–	–	–	–	Burkin Assay in Myoblasts, signal relative to DMSO ([1]; 0.5 uM): 1.082; Burkin Assay in Myoblasts, signal relative to DMSO ([1]; 1 uM): 0.9869; Burkin Assay in Myoblasts, signal relative to DMSO ([1]; 5 uM): 0.9655; Burkin Assay in Myoblasts, signal relative to DMSO ([1]; 10 uM): 0.9015; Burkin Assay in Myoblasts, signal relative to DMSO ([1]; 20 uM): 1.005; Burkin Assay in Myoblasts, signal relative to DMSO ([1]; 40 uM): 0.8386; Burkin Assay in Myotubes, α7 integrin LacZ reporter signal relative to DMSO ([2]; 0.5 uM): 1.036; Burkin Assay in Myotubes, α7 integrin LacZ reporter signal relative to DMSO ([2]; 1 uM): 0.9519; Burkin Assay in Myotubes, α7 integrin LacZ reporter signal relative to DMSO ([2]; 5 uM): 1.235; Burkin Assay in Myotubes, α7 integrin LacZ reporter signal relative to DMSO ([2]; 10 uM): 1.213; Burkin Assay in Myotubes, α7 integrin LacZ reporter signal relative to DMSO ([2]; 20 uM): 1.125; Burkin Assay in Myotubes, α7 integrin LacZ reporter signal relative to DMSO ([2]; 40 uM): 0.6717
